In this series the test system is human red blood cells. Description: hemolysis of human red blood cells in whole blood (extracellular hemoglobin, spectrophotometric). The series is classed as cell-based. To be noted: human red blood cells exposed in whole blood, peptide concentration 63 ug/mL. From the text: Table III lists the approximate pharmacokinetics of synthetic peptides described in the present invention which solubilize readily, persist in conformationally active secondary structures in vivo, and induce lysis of representative bacteria, yeast and fungi. These determinations derive from optical density readings (O.D.) and rely on spectrophotometric absorbance from known initial concentrations as reference standards. It is worth noting that although the peptide antimicrobials show 30+% homology with the yeast killer toxin beta subunit fragment, they have very favorable safety profiles on mammalian cells. For example, when human red blood cells are exposed in whole blood to SEQ. […] Perhaps, as significant, the safety profile derives from very specific amino acid substitutions, since substitution for less than 20% of the amino acids in SEQ. 1 renders SEQ. 2 hemolytic to 20% at 63 ug/mL and 35% substitution in SEQ. 1 renders SEQ. 3 hemolytic to 100%. Therefore, sequence identity and variation translate directly to the functional balance between microbial inhibition and mammalian safety. The optimal therapeutic index for dosage and effective antimicrobial inhibition of a particular polypeptide or salt thereof follow routinely without elaborate laboratory determinations by those skilled in the art of pharmacokinetics and metabolic pathways using, for instance, various cytochrome and liver enzymes in vivo.

Where no end group is shown, it is not given here.

As to LVLLKKLMKKYKKLKKLGGL [SEQ. 1], the hemolysis result was “no hemolysis is detectable”.

In the case of LLLLKLLLKKNPKLKKLIGV [SEQ. 2], the hemolysis amounted to 20%.

On to LLLLKKLLKLMNLLKKLGHY [SEQ. 3], for which the hemolysis is recorded as 100%.

These data come from patent publication US5969098A, “Yeast-toxin-related protein for antimicrobial vaccine and sterilizing preservative use” (CyberChemics, Inc., priority 1997, dated 1999).
